Data taken from patent publication US9107816B2, “Implantable device for controlled dissolution and diffusion of low solubility drug” (TARIS BIOMEDICAL LLC, priority 2011, dated 2015).

Test: In vitro release of mitomycin C from housing module (100% MMC tablets)
Assay type: physicochemical
Conditions: 100% MMC tablet, one face exposed, 20 mL deionized water at 37° C., replenished daily, 8 days, n=3, FIG. 43
Experimental: The diameter of the tablets was either 2.1 mm or 2.6 mm with the height of 2 mm. The mass of the tablet was approximately 10 mg for 2.1 mm diameter tablet and 16 mg for 2.6 mm diameter tablet.
Housing modules were made from segments of silicone tube and silicone adhesive. […] The surface ‘b’ of tablet 402 was surrounded by silicone tube 406 and the surface ‘c’ was in contact with silicone adhesive 408.
Specifically, the housing module 400 was submerged in 20 mL deionized water at 37° C., with the release medium being entirely replenished daily during the test period. The cumulative release of MMC was measure over the test period. In vitro release data is shown in FIG. 43 (n=3; the error bars indicate S.D. around the mean.) (Some error bars are not shown, i.e., when they are smaller than the symbols.).

CO[C@@]12[C@H](COC(N)=O)C3=C(C(=O)C(C)=C(N)C3=O)N1C[C@@H]1N[C@@H]12 [MMC, mitomycin C]
cumulative release of MMC (release kinetics): near zero order release was achieved until the tablet was all eroded
